Laboratory results: publication PMC7248975, “Sigma-1 Receptor Positron Emission Tomography: A New Molecular Imaging Approach Using (S)-(−)-[^18F]Fluspidine in Glioblastoma” (Molecules, 2020)

How the values were obtained:
sigma-1 receptor (sig1R) [1] = target: T1, sigma-1 receptor (sig1R) (Mus musculus, UniProt O55242); test: homologous radioligand displacement by autoradiography; PET in sig1R-knockout vs control mice
T1 construct: gene Sigmar1; mouse brain cryosections, contralateral striatum

sigma-1 receptor (sig1R) [2] = target: T2, sigma-1 receptor (sig1R) (Homo sapiens, UniProt Q99720); test: radioligand binding and displacement of (+)-[3H]pentazocine in U87-MG cells; autoradiography of tumour
T2 construct: gene SIGMAR1; U87-MG cells
T2 sequence (Q99720 whole entry): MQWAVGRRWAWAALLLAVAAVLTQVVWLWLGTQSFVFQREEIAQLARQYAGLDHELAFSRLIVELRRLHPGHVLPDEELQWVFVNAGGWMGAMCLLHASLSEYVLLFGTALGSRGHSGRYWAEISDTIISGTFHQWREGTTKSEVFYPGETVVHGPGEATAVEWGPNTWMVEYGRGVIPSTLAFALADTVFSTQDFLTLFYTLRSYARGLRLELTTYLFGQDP

T1 sequence (O55242 whole entry): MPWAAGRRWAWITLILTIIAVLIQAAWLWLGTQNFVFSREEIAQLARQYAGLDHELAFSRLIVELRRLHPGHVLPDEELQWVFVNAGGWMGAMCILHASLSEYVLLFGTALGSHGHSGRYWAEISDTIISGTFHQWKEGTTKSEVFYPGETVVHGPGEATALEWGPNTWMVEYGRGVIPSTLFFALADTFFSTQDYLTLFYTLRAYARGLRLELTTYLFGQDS

## FCC[C@@H]1OC2(CCN(Cc3ccccc3)CC2)c2ccccc21 [(S)-(−)-[^18F]fluspidine]
sigma-1 receptor (sig1R) [1]
  Kd: 0.017 ± 0.0048 µM
sigma-1 receptor (sig1R) [2]
  Kd: 0.0167 µM
